These results are taken from patent publication US7166588B2 (priority 2000, dated 2007).

Counter-ions that a name gives are not always drawn.

What is called IC50 is the concentration that gives 50% inhibition.

acetylcholinesterase (AChE), human recombinant, sequence (P22303 32-614): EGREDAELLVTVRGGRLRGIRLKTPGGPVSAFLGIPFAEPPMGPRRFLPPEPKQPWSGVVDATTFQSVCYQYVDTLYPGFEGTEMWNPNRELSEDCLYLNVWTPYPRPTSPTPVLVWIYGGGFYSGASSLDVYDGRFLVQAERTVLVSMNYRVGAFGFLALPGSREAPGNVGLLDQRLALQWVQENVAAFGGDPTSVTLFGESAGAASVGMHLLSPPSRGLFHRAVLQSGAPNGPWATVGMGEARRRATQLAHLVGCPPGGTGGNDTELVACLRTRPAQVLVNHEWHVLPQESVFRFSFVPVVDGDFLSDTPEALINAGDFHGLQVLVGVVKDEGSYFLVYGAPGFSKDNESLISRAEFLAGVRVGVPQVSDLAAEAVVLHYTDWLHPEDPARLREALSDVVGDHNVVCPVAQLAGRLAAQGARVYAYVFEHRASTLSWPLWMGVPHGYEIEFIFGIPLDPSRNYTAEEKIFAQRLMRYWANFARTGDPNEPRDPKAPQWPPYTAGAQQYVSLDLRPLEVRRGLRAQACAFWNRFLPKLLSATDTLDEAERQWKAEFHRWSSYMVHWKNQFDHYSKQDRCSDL

The assay concerns the target acetylcholinesterase (AChE), human recombinant (Homo sapiens, UniProt P22303). Nature of the assay: biochemical. The settings on record: pre-incubation of the enzyme with inhibitor, read-out: IC50 (AChE, mE, hr).
With `COc1ccc2c3c1O[C@@H]1C[C@H](O)C=CC31CCN(C(=O)Nc1ccc3ccccc3c1)C2` (stereo partly shown) [SPH-1232], the IC50 was determined as 36 µM.

`COc1cc(C)c2c3c1O[C@@H]1C[C@H](O)C=CC31CC[N+](C)(Cc1ccc(C(F)(F)F)cc1)C2` (stereo partly shown) [SPH-1253]: the IC50 was 60 µM.

On to `COc1ccc2c3c1O[C@@H]1CC(O)C=CC31CCN(C(N)=O)C2` (stereo partly shown) [SPH-1268], for which the IC50 was determined as 44 µM.

For the compound `COc1ccc2c3c1O[C@@H]1CC(O)C=CC31CCN(C)C2C` (stereo partly shown) [SPH-1293], the IC50 came out at 4.2 µM.

As for `COc1ccc2c3c1O[C@@H]1CC(O)C=CC31CCN(C)C2C#N` (stereo partly shown) [SPH-1291], the half-inhibitory concentration (IC50) amounted to 0.8 µM.

With `COc1ccc2c3c1O[C@@H]1CC(O)C=CC31CCN(C(=O)OCC1c3ccccc3-c3ccccc31)C2` (stereo partly shown) [SPH-1292], the IC50 was 40 µM.

In the case of `COc1ccc2c3c1O[C@@H]1CC(O)C=CC31CCN(CCCN1CC3CC1CN3c1ccc(F)cc1)C2` (stereo partly shown) [SPH-1312], the IC50 is 3 µM.

Regarding `COc1ccc2c3c1O[C@@H]1CC(O)C=CC31CCN(CCCN1CCCCC1)C2` (stereo partly shown) [SPH-1286], the IC50 stood at 0.3 µM.

For `COc1ccc2c3c1O[C@H]1CC(O)C=C[C@@]31CC[N+](C)(CCCCl)C2` (single isomer, unassigned; (-)) [SPH-1191, (−)(3-Chloropropyl)-galanthaminium Bromide, 1.25 H2O], the half-maximal inhibitory concentration (IC50) was 0.35 µM.

On to `COc1ccc2c3c1O[C@@H]1CC(O)C=CC31CCN(c1ccccc1)C2` (stereo partly shown) [SPH-1280], for which the IC50 worked out at 0.5 µM.

On to `COC(=O)/C=C(\C(=O)OC)N1CCC23C=C[C@@H](O)C[C@H]2Oc2c(OC)ccc(c23)C1` (stereo partly shown) [SPH-1259], for which the half-inhibitory concentration (IC50) is 140 µM.

For the compound `CNC(=S)N1CCC23C=C[C@H](O)CC2Oc2c(OC)cc(Br)c(c23)C1` (stereo partly drawn) [SPH-1209, (6R)-1-Bromo-6-hydroxy-3-methoxy-N^11-methyl-5,6,9,10-tetrahydro-4aH-[1]benzofuro[3a,3,2-ef][2]benzazepine-11(12H)-thiocarboxylic acid amide], the half-maximal inhibitory concentration (IC50) worked out at 31 µM.

As to `COc1ccc2c3c1O[C@@H]1CC(O)C=CC31CCN(CC#N)C2` (stereo partly shown) [SPH-1295], the IC50 worked out at 15 µM.

Consider `COc1ccc2c3c1O[C@@H]1CC(O)C=CC31CCN(CCCN1CCCCC1)C2` (stereo in doubt) [SPH-1371, (4aα,6b, 8aR* )-4a,5,9,10,111,12-Hexahydro-3-methoxy-11-[3-(1-piperidinyl)propyl]-6H-benzofuro[3a,3,2-ef][2]benzazepin-6-ol, Dihydrobromide, Dihydrate], for which the IC50 amounted to 0.36 µM.

As to `COc1cc(C)c2c3c1O[C@@H]1CC(O)C=CC31CCN(C)C2C#N` (stereo partly shown) [SPH-1317], the IC50 stood at 80 µM.

With `COc1ccc2c3c1O[C@@H]1CC(O)C=CC31CCN(CCCO)C2` (stereo partly shown) [SPH-1315], the IC50 stood at 2.8 µM.

For `COc1ccc2c3c1O[C@H]1CC(O)C=CC31CCN(C(=O)NC(C)(C)C)C2` (stereo partly shown) [SPH-1283], the half-inhibitory concentration (IC50) amounted to 93 µM.

On to `COc1ccc2c3c1O[C@@H]1C[C@H](O)C=CC31CCN(CCCN)C2` (stereo partly shown) [SPH-1235], for which the IC50 was found to be 3.4 µM.

On to `CCN(CC)c1nc(N(CC)CC)nc(N2CCC34C=C[C@@H](O)C[C@H]3Oc3c(OC)ccc(c34)C2)n1` (stereo partly shown) [SPH-1243], for which the IC50 is 40 µM.

In the case of `COc1ccc2c3c1O[C@@H]1C[C@H](O)C=CC31CCN(CCC(=O)NC(C)(C)C)C2` (stereo partly shown) [SPH-1249], the IC50 was determined as 45 µM.

On to `COc1cc(C)c2c3c1OC1CC(O)C=CC31CCN(C)C2C` (stereo not shown) [SPH-1320], for which the IC50 is 83 µM.

Regarding `COc1ccc2c3c1O[C@H]1CC(O)C=CC31CCN(CCCN1CCCCC1)C2` (stereo partly shown) [SPH-1333], the concentration for half-maximal inhibition (IC50) worked out at 9 µM.

Turning to `COc1ccc2c3c1O[C@H]1CC(O)C=C[C@@]31CCN(C(=O)OC(C)(C)C)C2` (relative stereo) [SPH-1302, (4aa,6β,8aR*)-4a,5,9,10-Tetrahydro-6-hydroxy-3-methoxy-6H-benzofuro[3a,3,2-ef][2]benzazepine-11(12H)-carboxylic acid-1,1-dimethylethyl ester], the IC50 turned out to be 23 µM.

`COc1ccc2c3c1O[C@@H]1CC(O)C=CC31CCN(CC(=O)N1CC3CC1CN3c1ccccc1)C2` (stereo partly shown) [SPH-1314]: the IC50 was 8.4 µM.

Regarding `COc1ccc2c3c1O[C@@H]1CC(O)C=CC31CCN(C)C2C#N` (stereo partly shown) [SPH-1290], the IC50 worked out at 1.2 µM.

With `COc1cc(C)c2c3c1O[C@@H]1C[C@H](O)C=CC31CC[N+](C)(Cc1ccccc1)C2` (stereo partly shown) [SPH-1207], the IC50 was 47 µM.

Take `COc1ccc2c3c1O[C@@H]1CC(O)C=CC31CCN(C(=O)NC(C)C)C2` (stereo in doubt) [SPH-1214, (6R)-6-Hydroxy-N^11-isopropyl-3-methoxy-5,6,9,10-tetrahydro-4aH-[1]benzofuro[3a,3,2-ef][2]benzazepine-11(12H)carboxamide]: the IC50 was 4.2 µM.

As to `COc1ccc2c3c1O[C@@H]1CC(O)C=CC31CCN(/C(=N/C#N)SC)C2` (stereo partly shown) [SPH-1272], the IC50 is 6.7 µM.

On to `COc1ccc2c3c1O[C@@H]1C[C@H](O)C=CC31CCN(CCC(=O)NC(C)C)C2` (stereo partly shown) [SPH-1262], for which the IC50 came out at 54.5 µM.

In the case of `COc1ccc2c3c1O[C@@H]1C[C@H](O)C=CC31CCN(C(=O)Nc1ccccc1)C2` (stereo partly shown) [SPH-1215], the IC50 came to 70 µM.

Consider `COc1ccc2c3c1O[C@@H]1C[C@H](O)C=CC31CCN(c1ncccn1)C2` (stereo partly shown) [SPH-1229], for which the IC50 is 38 µM.

For the compound `CCN(CC)c1nccc(N2CCC34C=C[C@@H](O)C[C@H]3Oc3c(OC)ccc(c34)C2)n1` (stereo partly shown) [SPH-1245], the half-maximal inhibitory concentration (IC50) came out at 25 µM.

As to `CNC(=S)N1CCC23C=C[C@@H](O)C[C@H]2Oc2c(OC)ccc(c23)C1` (stereo partly shown) [SPH-1211], the IC50 amounted to 23 µM.

On to `C#CC[N+]1(C)CCC23C=C[C@@H](O)C[C@H]2Oc2c(OC)cc(C)c(c23)C1` (stereo partly shown) [SPH-1206], for which the IC50 was 78 µM.

For `COc1ccc2c3c1O[C@@H]1CC(O)C=CC31CCN(C(=O)Oc1ccccc1)C2` (stereo partly shown) [SPH-1296], the IC50 worked out at 46 µM.

For `C=CCNC(=S)N1CCC23C=C[C@@H](O)C[C@H]2Oc2c(OC)ccc(c23)C1` (stereo partly shown) [SPH-1236], the IC50 is 21 µM.

Regarding `CNC(=S)N1CCC23C=C[C@@H](O)C[C@H]2Oc2c(OC)ccc(c23)C1` (stereo partly shown) [SPH-1287], the 50% inhibitory concentration (IC50) is 18.5 µM.

For `COc1ccc2c3c1O[C@@H]1C[C@H](O)C=CC31CCN(C(=O)NC(C)c1ccccc1)C2` (stereo partly shown) [SPH-1267], the IC50 turned out to be 30 µM.

For the compound `COc1ccc2c3c1O[C@@H]1C[C@H](O)C=CC31CCN(C=C(C#N)C#N)C2` (stereo partly shown) [SPH-1219], the concentration for half-maximal inhibition (IC50) is 28.5 µM.

For the compound `COc1cc2c(cc1OC)C(=O)C(CCCCN1CCC34C=CC(O)C[C@H]3Oc3c(OC)ccc(c34)C1)C2` (stereo partly shown) [SPH-1335], the half-inhibitory concentration (IC50) was 0.02 µM.

For `COc1ccc2c3c1O[C@H]1CC(O)C=C[C@@]31CC[N+](C)(Cc1ccc(Br)cc1)C2` (single isomer, unassigned; (-)) [SPH-1184, (−)(4-Bromophenyl)methylgalanthaminium bromide hemihydrate], the IC50 amounted to 0.2 µM.

In the case of `COc1ccc2c3c1O[C@@H]1CC(O)C=CC31CCN(c1cccs1)C2` (stereo partly shown) [SPH-1282], the 50% inhibitory concentration (IC50) was 4 µM.

Consider `COc1ccc2c3c1O[C@@H]1CC(O)C=CC31CCN(c1ccnc(OCCCN(C)C)n1)C2` (stereo in doubt) [SPH-1244, (6R)-11-(2-(3-(Dimethylamino)propoxy)-4-pyrimidinyl)-3-methoxy-5,6,9,10,11,12-hexahydro-4aH-[1]benzofuro[3a,3,2-ef][2]benzazepin-6-ol], for which the 50% inhibitory concentration (IC50) was determined as 7.6 µM.

With `COc1cc(C)c2c3c1O[C@@H]1C[C@H](O)C=CC31CCN(CCCN1CCCCC1)C2` (stereo partly shown) [SPH-1201], the half-maximal inhibitory concentration (IC50) was determined as 46 µM.

Regarding `COc1ccc2c3c1O[C@H]1CC(O)C=CC31CCN(C(=O)NC(C)C)C2` (stereo partly shown) [SPH-1284], the 50% inhibitory concentration (IC50) is 8 µM.

As to `COc1ccc2c3c1O[C@@H]1C[C@H](O)C=CC31CCN(C(=O)NC(C)(C)C)C2` (stereo partly shown) [SPH-1221], the half-maximal inhibitory concentration (IC50) turned out to be 4.8 µM.

As to `COc1ccc2c3c1O[C@@H]1C[C@H](O)C=CC31CCN(C(=O)Nc1ccc(Cl)cc1)C2` (stereo partly shown) [SPH-1237], the IC50 worked out at 24 µM.

`COc1cc2c(cc1OC)C(=O)C(CCCCCN1CCC34C=CC(O)C[C@H]3Oc3c(OC)ccc(c34)C1)C2` (stereo partly drawn) [SPH-1359, 2-[5-[(4aS,6R,8aS)-6-Hydroxy-3-methoxy-5,6,9,10,11,12-hexahydro-4aH-benzofuro[3a,3,2-e,f][2]benzazepine-11-yl]pentyl]-5,6-dimethoxyindan-1-one]: the IC50 was 0.0052 µM.

On to `COc1cc2c(cc1OC)C(=O)C(CCCCN1CCC34C=CC(O)C[C@H]3Oc3c(OC)ccc(c34)C1)C2` (stereo partly shown) [SPH-1376], for which the IC50 stood at 0.02 µM.

Regarding `COc1ccc2c3c1O[C@@H]1C[C@H](O)C=CC31CCN(CCCO)C2` (stereo partly shown) [SPH-1220], the IC50 amounted to 7.2 µM.

Turning to `COc1ccc2c3c1O[C@@H]1C[C@H](O)C=CC31CCN(CCCN1CC3CC1CN3c1ccc(F)cc1)C2` (stereo partly shown) [SPH-1196], the 50% inhibitory concentration (IC50) is 5.2 µM.

`COc1ccc2c3c1O[C@@H]1C[C@H](N)C=CC31CCN(C)C2` (stereo partly drawn) [SPH-1227, [4aS-(4aα,6α,8aR*)]-4a,5,9,10,11,12-Hexahydro-3-methoxy-11-methyl-6H-benzofuro[3a,3,2-ef][2]benzazepine-6-amine]: the IC50 stood at 40 µM.

As to `C#CC[N+]1(C)CC[C@@]23C=C[C@@H](O)C[C@@H]2Oc2c(OC)cc(C)c(c23)C1` (mixture of isomers) [SPH-1251], the IC50 was determined as 59 µM.

Turning to `COc1ccc2c3c1O[C@@H]1C[C@H](O)C=CC31CCN(C(=O)NC(C)(C)C)C2` (stereo partly shown) [SPH-1270], the IC50 came out at 2.5 µM.

`COc1cc2c(cc1OC)C(=O)C(CCCCCN1CCC34C=CC(O)C[C@H]3Oc3c(OC)ccc(c34)C1)C2` (stereo partly shown) [SPH-1375]: the IC50 amounted to 0.023 µM.

Turning to `COc1ccc2c3c1O[C@@H]1CC(O)C=CC31CCN(C(=S)Oc1ccccc1)C2` (stereo partly shown) [SPH-1328], the IC50 was 7.2 µM.

For the compound `COc1ccc2c3c1O[C@@H]1CC(O)C=CC31CCN(CC1CC1)C2` (stereo partly shown) [SPH-1289], the concentration for half-maximal inhibition (IC50) turned out to be 0.7 µM.

As to `COc1ccc2c3c1O[C@@H]1C[C@H](O)C=CC31CCN(C(=O)NC(C)C)C2` (stereo partly shown) [SPH-1269], the IC50 came out at 2.6 µM.
